Measurements published in publication PMC10217546, “Antioxidant Activities of Dihydromyricetin Derivatives with Different Acyl Donor Chain Lengths Synthetized by Lipozyme TL IM” (Foods, 2023).
Like-named read-outs stand apart in the source and are kept apart here. Marks after values point to notes of the source that are not given here.

Legend:
L-02 cells = assay: Cellular antioxidant activity (CAA) assay in L-02 cells; assay type: cell-based, Human
Method: Human normal hepatocytes (L-02 cells, passage number 4) were purchased from Cell Bank of Shanghai Institutes for Biological Sciences, Chinese Academy of Sciences (Shanghai, China) and cultured in RPMI 1640 medium (Invitrogen, Carlsbad, CA, USA) supplemented with 10% FBS and 1% penicillin-streptomycin double antibody and were cultured at 37 °C in 5% CO2.
The CAA assay was made using the method of Wolfe and Liu with modifications. L-02 cells were inoculated in black 96-well plates (6 × 10^4 /well, 100 μL) and incubated for 24 h. After removing culture medium, and the cells were washed with PBS and treated with the samples and DCFH-DA (25 μmol/L) for 1 h. Then, the cells were divided into two groups. One group was washed with PBS, and ABAP (600 μmol/L, 100 μL) was added to each well. Another group was only treated with adding 100 μL of ABAP (600 μmol/L) without washing. The black 96-well plates were measured by a Thermo Scientific Fluoroskan Ascent FL (Thermo Fisher Scientific, Waltham, MA, USA) every 5 min for 1 h at an emission wavelength of 538 nm and an excitation wavelength of 485 nm. Three control wells and one blank well were set. The control well was made up of the cells treated with ABAP but without samples, and the blank well was made up of the cells treated without ABAP and samples. Quercetin was used as the positive control. (6) CAA unit=1 - ∫SA/∫CA × 100 where ∫SA represents the area integral under the sample fluorescence value versus time curve and ∫CA represents the area integral under the control fluorescence value versus time curve.

[1] = Partition coefficient of lipids and water (log P), n-octanol/water by HPLC; assay type: physicochemical
Method: The lipophilicity of DHM and its derivatives was evaluated using log P, which was determined by a previous method with several modifications. Two milligrams of sample were dissolved in n-octanol solution (4 mL) saturated by water and analyzed using HPLC at 298 nm (A0). The n-octanol solution (1 mL) saturated by water containing the sample was mixed with water solution (1 mL) saturated by n-octanoland and then shaken using a constant-temperature water bath oscillator (Tianjin, China) at 30 °C for 24 h at 150 rpm. The ultraviolet absorbance of the upper solution was analyzed at 298 nm (Ax). The calculation equation of log P is as follows:(1) log P=log Ax / (A0 − Ax)

[2] = DPPH radical scavenging ability; conditions: for IC50 DPPH: DPPH radical scavenging test; for scavenging rate of DPPH free radicals: sample concentration 20 μg/mL, 30 min in the dark, 517 nm
Method: The method used to determine the abilities of DHM and its acylated derivatives was a previous method with some modifications. Two milliliters of DPPH (0.065 mg/mL) and 2 mL of the sample (3, 5, 10, 15, and 20 μg/mL) were added to a centrifuge tube and described at 517 nm after 30 min of reaction in a dark environment. Vc (a water-soluble antioxidant) and TBHQ (a lipid soluble antioxidant) were used as controls. (2) DPPH radical scavenging activity (%) =(1−A1 - A2/A0) × 100 where A0, A1, and A2 represent the absorbance values of the DPPH-ethanol, DPPH-sample, and sample-ethanol mixtures, respectively.

[3] = ABTS radical scavenging ability; conditions: ABTS radical scavenging test, 30 °C, 6 min, 734 nm
Method: The ability of DHM and its acylated derivatives to scavenge ABTS radicals was evaluated using a previous method with some modification. Samples (0.1 mL, 0.01, 0.02, 0.04, 0.06, and 0.08 mg/mL) were added to 3.9 mL of ABTS solution and measured at 734 nm after incubation at 30 °C for 6 min. Vc (a water-soluble antioxidant) and TBHQ (a lipid soluble antioxidant) were used as controls. (3) ABTS radical scavenging activity (%) =(1−A1 - A2/A0) × 100 where A0, A1, and A2 represent the absorbance values of the ABTS-ethanol, ABTS-samples, and samples-ethanol mixtures, respectively.

[4] = Homo sapiens, L02, PBS wash between antioxidant and ABAP treatments, read-out: EC50 CAA Unit Wash
[5] = Homo sapiens, L02, no PBS wash between antioxidant and ABAP treatments, read-out: EC50 CAA Unit No Wash
[6] = n-octanol/water, shaken at 30 °C for 24 h, HPLC at 298 nm
[7] = PBS wash between antioxidant and ABAP treatments, read-out: EC50 CAA Unit Wash
[8] = no PBS wash between antioxidant and ABAP treatments, read-out: EC50 CAA Unit No Wash

SMILES | IC50 DPPH [2] | IC50 ABTS [3] | log P [1] | logP at 24 h [1, 6] | EC50 (L-02 cells; [4]) [µM] | EC50 (L-02 cells; [5]) [µM] | log P [1, 6] | scavenging rate of DPPH free radicals [2] [%] | EC50 (L-02 cells; [7]) [µM] | EC50 (L-02 cells; [8]) [µM]
O=c1c(O)c(-c2ccc(O)c(O)c2)oc2cc(O)cc(O)c12 [Quercetin, reference compound] | – | – | – | – | 29 ± 0.36 | 33.9 ± 3.67 | – | – | – | –
CCCCCC(=O)OC1C(=O)c2c(O)cc(O)cc2OC1c1cc(O)c(O)c(O)c1 (stereo not drawn) [C6-DHM, 3-O-hexanoyl-DHM] | 11.17 ± 0.04 ^bc μg/mL | 77.22 ± 1.46 ^a μg/mL | – | – | – | – | 1.67 | 82.53 ± 1.98 | 52.9 ± 2.69 | 65.2 ± 3
CCCC(=O)OC1C(=O)c2c(O)cc(O)cc2OC1c1cc(O)c(O)c(O)c1 (stereo not drawn) [C4-DHM, 3-O-butyryl-DHM] | 9.08 ± 0.25 ^bc μg/mL | 56.30 ± 1.03 ^a μg/mL | 1.50 | – | – | – | – | 92.70 ± 0.79 | 60.7 ± 0.64 | 60.8 ± 6.23
CC(=O)OC1C(=O)c2c(O)cc(O)cc2OC1c1cc(O)c(O)c(O)c1 (stereo not drawn) [C2-DHM, 3-O-acetyl-DHM] | 9.07 ± 0.10 ^bc μg/mL | 58.29 ± 2.20 ^a μg/mL | – | – | – | – | 1.32 | 92.58 ± 1.33 | 172 ± 8.84 | 77.8 ± 3.81
CCCCCCCC(=O)OC1C(=O)c2c(O)cc(O)cc2OC1c1cc(O)c(O)c(O)c1 (stereo not drawn) [C8-DHM, 3-O-octanoyl-DHM] | 12.69 ± 0.09 ^c μg/mL | 80.15 ± 0.42 ^a μg/mL | 1.73 | – | – | – | – | 74.14 ± 0.40 | 35.14 ± 0.29 | 45.4 ± 0.74

Second part, led by results:

IC50 DPPH [2] | IC50 ABTS [3] | log P [1] | logP at 24 h [1, 6] | SMILES | EC50 (L-02 cells; [4]) [µM] | EC50 (L-02 cells; [5]) [µM] | log P [1, 6] | scavenging rate of DPPH free radicals [2] [%] | EC50 (L-02 cells; [7]) [µM] | EC50 (L-02 cells; [8]) [µM]
35.93 ± 5.63 ^d μg/mL | 360.69 ± 50.13 ^b μg/mL | 1.80 | – | CCCCCCCCCCCC(=O)OC1C(=O)c2c(O)cc(O)cc2OC1c1cc(O)c(O)c(O)c1 (stereo not drawn) [C12-DHM, 3-O-lauroyl-DHM] | – | – | – | 29.62 ± 4.88 | 122 ± 9.48 | 234 ± 9.69
7.55 ± 0.18 ^ab μg/mL | 79.34 ± 3.37 ^a μg/mL | – | – | CC(C)(C)c1cc(O)ccc1O [TBHQ, tert-butylhydroquinone, reference compound] | – | – | – | – | – | –
9.04 ± 0.09 ^bc μg/mL | 46.51 ± 2.19 ^a μg/mL | – | 0.81 | O=C1c2c(O)cc(O)cc2O[C@H](c2cc(O)c(O)c(O)c2)[C@H]1O [DHM, Dihydromyricetin] | 226 ± 4.67 | 90.2 ± 5.02 | – | 93.37 ± 1.83 | – | –
4.23 ± 1.38 ^a μg/mL | 61.02 ± 2.15 ^a μg/mL | – | – | O=C1O[C@H]([C@@H](O)CO)C(O)=C1O [Vc, L-ascorbic acid, reference compound] | – | – | – | – | – | –
